In patent US4371544A, “Pharmaceutical composition containing 1,1,3,5-substituted biuret compound” (Taiho Pharmaceutical Company Limited, priority 1979, dated 1983):

Tests used:
[1] = system: ddy strain of male mice; test: Acute toxicity (oral, mice, 7 days observation); format: in vivo
Experimental: (§1) Next, several tests for determining the pharmacological properties, in that acute toxicity, anti-pyretic activity, analgesic activity and anti-inflammatory activity of the present 1,1,3,5-substituted biuret compounds of the formula (1) were conducted and the test results are shown in Table (2). In the tests, each compounds to be tested was used as a suspension in 0.25% carboxymethylcellulose solution. Methods for testing are explained as follows:
The ddy strain of male mice (body weight, 20-25 g) were used as test animals. The mice were fasted overnight and the compound to be tested was administered orally. […] The lethal dose (mg/kg, body weight) of the test compound was determined in connection with the death number of mice/the number of mice tested. In Table 2, the values indicated with Δ marks are 50% lethal dose, LD50 (mg/kg, body weight).

[2] = system: ddy strain of male mice; test: Analgesic activity, acetic acid-induced stretching method; format: in vivo, mouse (ddy); settings: for inhibition in vivo at 100 mg/kg / inhibition in vivo at 200 mg/kg: read-out: Analgesic activity, acetic acid-induced stretching method, inhibitory ratio
Experimental: as §1
According to the method reported by Koster et al., [Fed. Proc., Vol. 18, pp. 412 (1959)], the ddy strain of male mice (body weight, 20-25 g) were used as test animals. The mice were fasted overnight, 100 mg/kg body weight of the test compound was administered orally, then 1 hour after the administration, 0.2 ml of 0.7% acetic acid solution was injected intraperitoneally. The acetic acid-induced stretching symptom of mouse was observed. Analgesic activity of the test compound was calculated as the inhibitory ratio (%). In Table 2, the values in parentheses show the data obtained from the test by using the dosage other than 100 mg/kg body weight. Further, the values indicated with Δ marks show 50% effective dose, ED50 (mg/kg body weight).

[3] = system: ddy strain of male mice; test: Analgesic activity, Haffner method (morphine threshold dose, clamp); format: in vivo, mouse (ddy); settings: for ED50 / inhibition in vivo at 100 mg/kg: Mus musculus; for ED50: oral, Δ mark, range in parentheses; for inhibition in vivo at 100 mg/kg: read-out: Analgesic activity, Haffner method, inhibitory ratio
Experimental: as §1
According to the modified method reported by Fujimura et. al., [Bulletin of the Institute for Chemical Research, Kyoto University, No. 25, pp. 36 (1951)], the ddy strain of male mice (body weight, 20-25 g) were used as test animals. The mice were fasted overnight, 100 mg/kg body weight of the test compound was administered orally, then 45 minutes after the administration, the threshold amount (1.5-2.5 mg/kg body weight) of morphine hydrochloride was injected subcutaneously. Then 1-hour pain reaction of the mouse caused by a clamp was observed. Analgesic activity of the test compound was calculated as the inhibitory ratio (%). In Table 2, the values in parentheses show the data obtained from the test by using the dosage other than 100 mg/kg body weight. Further, the values indicated with Δ marks show 50% effective dose, ED50 (mg/kg body weight).

[4] = system: Wistar strain of male rats; test: Anti-pyretic activity (dry-yeast-induced fever); format: in vivo, rat (Wistar); settings: oral (dose not given), up to 4 hours after administration
Experimental: as §1
According to the method reported by Tanabe [Folia Pharmacologia Japonica, Vol. 73, pp. 803 (1977)], the Wistar strain of male rats (150-180 g, body weight) were used as test animals. The rats were fasted overnight, and 1 ml/100 g (body weight) of 10% dry-yeast suspension were subcutaneously injected on the back of the rats. Five hours after the injection, the test compound was administered orally, then the body temperature of the rat was measured at time sequences. Anti-pyretic activity of the test compound was determined as the FI (febril index) by integrating pyrogenetic curve up to 4 hours after the administration of the test compound with time, and indicated as inhibitory ratio (%) shown by the following formula, [formula]

[5] = 100 mg/kg oral, 1 hour before acetic acid
[6] = 100 mg/kg oral, 45 minutes before morphine hydrochloride

| SMILES | Acute toxicity: death number of mice/number of mice tested ([1]; 2000 mg/kg oral) | Acute toxicity: death number of mice/number of mice tested ([1]; 1000 mg/kg oral) | Analgesic activity, acetic acid-induced stretching method, inhibitory ratio [2, 5] | Analgesic activity, Haffner method, inhibitory ratio [3, 6] | Anti-pyretic activity, inhibitory ratio (febril index) [4] | further results |
| --- | --- | --- | --- | --- | --- | --- |
| CN(C)C(=O)NC(=O)Nc1ccccc1F [Compound No. 2, 1,1-Dimethyl-5-(2-fluorophenyl)biuret] | 0/4 | – | – | – | – | inhibition in vivo at 100 mg/kg ([2]; Mus musculus, 100 mg/kg oral, 1 hour before acetic acid): 40% |
| CN(C)C(=O)NC(=O)Nc1ccc(Cl)cc1 [Compound No. 3] | 0/4 | – | – | – | – | inhibition in vivo at 100 mg/kg ([2]; Mus musculus, po): 50% |
| CN(C)C(=O)N(C)C(=O)Nc1ccccc1F [Compound No. 7, 1,1,3-Trimethyl-5-(2-fluorophenyl)biuret] | 4/4 | 1/4 | 62.5% | 75% | 76% | – |
| Cc1ccc(NC(=O)N(C)C(=O)N(C)C)cc1C [Compound No. 30, 1,1,3-Trimethyl-5-(3,4-dimethylphenyl)biuret] | 1/4 | – | – | – | 31% | ED50 [3]: 86 mg/kg |
| CCN(C)C(=O)N(C)C(=O)Nc1ccccc1 [Compound No. 45, 1-ethyl-1,3-dimethyl-5-phenylbiuret] | – | – | – | – | 49% | Analgesic activity, acetic acid-induced stretching method, inhibitory ratio ([2]; 80 mg/kg oral): 50%; ED50 [3]: 100 mg/kg |
| CN(C)C(=O)N(C)C(=O)Nc1ccc(F)cc1 [compound 8, 1,1,3-Trimethyl-5-(4-fluorophenyl)biuret] | – | – | 87.5% | 62.5% | 61% | – |
| CN(C)C(=O)N(C)C(=O)Nc1ccccc1Cl [compound 10, 1,1,3-Trimethyl-5-(2-chlorophenyl)biuret] | 0/4 | – | – | 37.5% | 66% | ED50 ([2]; Mus musculus, oral, Δ mark, range in parentheses): 135 mg/kg |
| CN(C)C(=O)N(C)C(=O)Nc1ccc(Cl)cc1Cl [compound 13, 1,1,3-Trimethyl-5-(2,4-dichlorophenyl)biuret] | 3/4 | 0/4 | 50% | 75% | 42% | – |
| CN(C)C(=O)N(C)C(=O)Nc1ccc(Cl)c(Cl)c1 [compound 14, 1,1,3-Trimethyl-5-(3,4-dichlorophenyl)biuret] | 3/4 | 1/4 | 50% | 62.5% | 43% | – |
| CN(C)C(=O)N(C)C(=O)Nc1c(Cl)cccc1Cl [compound 15, 1,1,3-Trimethyl-5-(2,6-dichlorophenyl)biuret] | – | – | 50% | 50% | 29% | – |
| CN(C)C(=O)N(C)C(=O)Nc1ccc(N(C)C)cc1 [compound 19, 1,1,3-Trimethyl-5-(4-dimethylaminophenyl)biuret] | 0/4 | – | 62.5% | 50% | 26% | – |
| CN(C)C(=O)N(C)C(=O)Nc1ccc(O)cc1 [compound 21, 1,1,3-Trimethyl-5-(4-hydroxyphenyl)biuret] | 3/4 | 0/4 | – | – | – | inhibition in vivo at 100 mg/kg ([2]; Mus musculus, po): 37.5%; inhibition in vivo at 100 mg/kg [3, 6]: 12.5% |
| COc1ccccc1NC(=O)N(C)C(=O)N(C)C [compound 22, 1,1,3-Trimethyl-5-(2-methoxyphenyl)biuret] | 2/4 | 0/4 | 37.5% | – | 13% | inhibition in vivo at 100 mg/kg [3, 6]: 50% |
| COc1ccc(NC(=O)N(C)C(=O)N(C)C)cc1OC [compound 24, 1,1,3-Trimethyl-5-(3,4-dimethoxyphenyl)biuret] | 4/4 | 0/4 | 75% | 62.5% | 18% | – |
| Cc1cccc(NC(=O)N(C)C(=O)N(C)C)c1C [compound 29, 1,1,3-Trimethyl-5-(2,3-dimethylphenyl)biuret] | 4/4 | 1/4 | – | 25% | 40% | – |
| Cc1cccc(C)c1NC(=O)N(C)C(=O)N(C)C [compound 31, 1,1,3-Trimethyl-5-(2,6-dimethylphenyl)biuret] | – | – | 75% | 37.5% | 69% | – |
| Cc1c(Cl)cccc1NC(=O)N(C)C(=O)N(C)C [compound 32, 1,1,3-Trimethyl-5-(2-methyl-3-chlorophenyl)biuret] | 4/4 | 1/4 | 75% | 25% | 45% | – |
| CSc1ccc(NC(=O)N(C)C(=O)N(C)C)cc1 [compound 34, 1,1,3-Trimethyl-5-(4-methylthiophenyl)biuret] | 4/4 | 0/4 | 50% | – | – | – |
| CCCN(C(=O)Nc1ccccc1)C(=O)N(C)C [compound 37, 1,1-Dimethyl-3-n-propyl-5-phenylbiuret] | 0/4 | – | 37.5% | – | 12% | Analgesic activity, Haffner method, inhibitory ratio ([3]; 200 mg/kg oral): 62.5% |
| CCCCNC(=O)N(C(=O)N(C)C)c1ccccc1 [compound 40] | 1/4 | 0/4 | – | – | – | inhibition in vivo at 200 mg/kg ([2]; Mus musculus, po): 62.5%; inhibition in vivo at 100 mg/kg [3, 6]: 62.5% |
| CCCCN(C)C(=O)N(C)C(=O)Nc1ccccc1 [compound 48, 1,3-Dimethyl-1-n-butyl-5-phenylbiuret] | 3/4 | 0/4 | 37.5% | 25% | 35% | – |
| CNC(=O)N(C)C(=O)N(c1ccccc1)c1ccccc1 [compound 65, 1,1-Diphenyl-3,5-dimethylbiuret] | 4/4 | 1/4 | – | – | – | inhibition in vivo at 100 mg/kg ([2]; Mus musculus, po): 12.5%; inhibition in vivo at 100 mg/kg [3, 6]: 50% |
| CN(C(=O)Nc1ccccc1)C(=O)N1CCCC1 [compound 68, 1,1-Tetramethylene-3-methyl-5-phenylbiuret] | – | – | – | – | 24% | Acute toxicity: death number of mice/number of mice tested ([1]; mouse, in vivo): 2/4; inhibition in vivo at 100 mg/kg ([2]; Mus musculus, po): 75% |
| O=C(NC(=O)N1CCCCC1)Nc1ccccc1 [compound 69, 1,1-Pentamethylene-5-phenylbiuret] | 0/4 | – | – | – | – | inhibition in vivo at 200 mg/kg ([2]; Mus musculus, po): 50%; ED50 [3]: 115 mg/kg |
| CNC(=O)N(C)C(=O)N1CCOCC1 [compound 72, 1,1-(3-Oxapentamethylene)-3,5-dimethylbiuret] | 0/4 | – | – | – | – | inhibition in vivo at 100 mg/kg ([2]; Mus musculus, po): 50%; inhibition in vivo at 100 mg/kg [3, 6]: 25% |
